{"source": "BindingDB's records for doi:10.1016/s0960-894x(98)00670-2", "about": "(Vertex Pharmaceuticals, 1999)", "target": "T1, Gag-Pol polyprotein [489-587] (Human immunodeficiency virus 1, UniProt P04585)", "T1 construct": "489-587", "experiment": "ChEBML_157552", "method": "Compound was assayed for inhibition against HIV protease activity"}
{"smiles": "COc1ccc(S(=O)(=O)N(CC2CCCC2)C[C@@H](O)CN(CCc2ccccc2)C(=O)OCc2cccnc2)cc1", "note": "[{(S)-3-[Cyclopentylmethyl-(4-methoxy-benzenesulfonyl)-amino]-2-hydroxy-propyl}-phenethyl-carbamic acid pyridin-3-ylmethyl ester]", "values": [{"measurement": "Ki", "value": 17, "unit": "nM"}]}
